According to US8841233B2, “Herbicidal compositions comprising 4-amino-3-chloro-5-fluoro-6-(4-chloro-2-fluoro-3-methoxyphenyl) pyridine-2-carboxylic acid or a derivative thereof and 4-hydroxyphenyl-pyruvate dioxygenase (HPPD) inhibitors” (Dow Agrosciences LLC, priority 2012, dated 2014):

Key:
LEFCH [1] = experiment: In-water applied weed control, transplanted paddy rice, greenhouse (Example II); assay type: in vivo, Leptochloa chinensis (L.) Nees
Description: (§1) Evaluation of in-Water Applied Herbicidal Mixtures for Weed Control in Transplanted Paddy Rice
(§2) Weed seeds or nutlets of the desired test plant species were planted in puddled soil (mud) prepared by mixing a shredded, non-sterilized mineral soil (50.5 percent silt, 25.5 percent clay, and 24 percent sand, with a pH of about 7.6 and an organic matter content of about 2.9 percent) and water at a 1:1 volumetric ratio. The prepared mud was dispensed in 365 mL aliquots into 16-ounce (oz.) non-perforated plastic pots with a surface area of 86.59 square centimeters (cm^2) leaving a headspace of 3 centimeters (cm) in each pot. Mud was allowed to dry overnight prior to planting or transplanting. Rice seeds were planted in Sun Gro MetroMix® 306 planting mixture, which typically has a pH of 6.0 to 6.8 and an organic matter content of about 30 percent, in plastic plug trays. Seedlings at the second or third leaf stage of growth were transplanted into 840 mL of mud contained in 32-oz. non-perforated plastic pots with a surface area of 86.59 cm^2 4 days prior to herbicide application. The paddy was created by filling the headspace of the pots with 2.5 to 3 cm of water. When required to ensure good germination and healthy plants, a fungicide treatment and/or other chemical or physical treatment was applied. The plants were grown for 4-22 days in a greenhouse with an approximate 14 h photoperiod which was maintained at about 29′C during the day and 26° C. during the night. Nutrients were added as Osmocote® (19:6:12, N:P:K+ minor nutrients) at 2 g per 16-oz. pot and 4 g per 32-oz. pot. Water was added on a regular basis to maintain the paddy flood, and supplemental lighting was provided with overhead metal halide 1000-Watt lamps as necessary. The plants were employed for testing when they reached the first through fourth true leaf stage.
(§3) Treatments consisted of the acid or esters of 4-amino-3-chloro-5-fluoro-6-(4-chloro-2-fluoro-3-methoxy-phenyl)pyridine-2-carboxylic acid (compound A) each formulated as an SC (suspension concentrate) and various herbicidal components alone and in combination. Forms of compound A were applied on an acid equivalent basis.
(§4) Other herbicidal components were applied on an active ingredient basis and included 4-hydroxyphenyl pyruvate dioxygenase (HPPD)-inhibiting herbicides mesotrione formulated as Callisto®, sulcotrione formulated as Mikado®, pyrazolynate formulated as Sunbird® 10% GR, and benzobicyclon formulated as Benzobicyclon 3.5% or technical material.
(§5) Treatment requirements for each compound or herbicidal component were calculated based upon the rates being tested, the concentration of active ingredient or acid equivalent in the formulation, an application volume of 2 mL per component per pot, and an application area of 86.59 cm^2 per pot.
(§6) For formulated compounds, a measured amount was placed in an individual 100 or 200 mL glass vial and was dissolved in a volume of 1.25% (v/v) Agri-Dex® crop oil concentrate to obtain application solutions.
(§7) For technical grade compounds, a weighed amount was placed in an individual 100 to 200 mL glass vial and was dissolved in a volume of acetone to obtain concentrated stock solutions. […] The concentrated stock solutions obtained were diluted with an equivalent volume of an aqueous mixture containing 2.5% (v/v) crop oil concentrate so that the final application solutions contained 1.25% (v/v) crop oil concentrate.
(§8) Applications were made by injecting with a pipetter appropriate amounts of the application solutions, individually and sequentially, into the aqueous layer of the paddy. Control plants were treated in the same manner with the solvent blank. Applications were made so that all treated plant material received the same concentrations of acetone and crop oil concentrate.
(§9) The treated plants and control plants were placed in a greenhouse as described above and water was added as needed to maintain a paddy flood. […]

IPOHE = experiment: Post-emergence foliar-applied weed control, greenhouse (Example I); assay type: in vivo, Ipomoea hederacea Jacq.; conditions: 150 gai/ha
From the text: (§10) Evaluation of Post-emergence Foliar-Applied Herbicidal Mixtures for Weed Control in Direct Seeded Rice
(§11) Seeds or nutlets of the desired test plant species were planted in a soil matrix prepared by mixing a loam or sandy loam soil (e.g., 28.6 percent silt, 18.8 percent clay, and 52.6 percent sand, with a pH of about 5.8 and an organic matter content of about 1.8 percent) and calcareous grit in an 80 to 20 ratio. The soil matrix was contained in plastic pots with a volume of 1 quart and a surface area of 83.6 square centimeters (cm^2). When required to ensure good germination and healthy plants, a fungicide treatment and/or other chemical or physical treatment was applied. The plants were grown for 8-22 days in a greenhouse with an approximate 14 h photoperiod which was maintained at about 29° C. during the day and 26° C. during the night. Nutrients (Peters Excel® 15-5-15 5-Ca 2-Mg and iron chelate) were applied in the irrigation solution as needed and water was added on a regular basis. Supplemental lighting was provided with overhead metal halide 1000-Watt lamps as necessary. The plants were employed for testing when they reached the first through fourth true leaf stage.
(§12) Treatments consisted of the acid or esters of 4-amino-3-chloro-5-fluoro-6-(4-chloro-2-fluoro-3-methoxy-phenyl)pyridine-2-carboxylic acid (Compound A), each formulated as an SC (suspension concentrate), and various herbicidal components alone and in combination. Forms of Compound A were applied on an acid equivalent basis.
(§13) Other herbicidal components were applied on an active ingredient basis and included 4-hydroxyphenyl pyruvate dioxygenase (HPPD)-inhibiting herbicides mesotrione formulated as Callisto®, sulcotrione formulated as Mikado®, pyrazolynate formulated as Sunbird® 10% GR, and benzobicyclon formulated as Benzobicyclon 3.5%.
(§14) Treatment requirements were calculated based upon the rates being tested, the concentration of active ingredient or acid equivalent in the formulation, and a 12 mL application volume at a rate of 187 L/ha.
(§15) For treatments comprised of formulated compounds, measured amounts of compounds were placed individually in 25 mL glass vials and diluted in a volume of 1.25% (v/v) Agri-Dex® crop oil concentrated to obtain 12× stock solutions. […] Application solutions were prepared by adding an appropriate amount of each stock solution (e.g., 1 mL) and diluted to the appropriate final concentrations with the addition of 10 mL of an aqueous mixture of 1.25% (v/v) crop oil concentrate so that the final spray solutions contained 1.25+/−0.05% (v/v) crop oil concentrate.
(§16) For treatments comprised of formulated and technical compounds, weighed amounts of the technical materials were placed individually in 25 mL glass vials and dissolved in a volume of 97:3 v/v acetone/DMSO to obtain 12× stock solutions, and measured amounts of the formulated compounds were placed individually in 25 mL glass vials and diluted in a volume of 1.5% (v/v) crop oil concentrate or water to obtain 12× stock solutions. […] Application solutions were prepared by adding an appropriate amount of each stock solution (e.g., 1 mL) and diluted to the appropriate final concentrations with the addition of an appropriate amount of an aqueous mixture of 1.5% (v/v) crop oil concentrate so that the final spray solutions contained 1.25% (v/v) crop oil concentrate. As required, additional water and/or 97:3 v/v acetone/DMSO was added to individual application solutions so that the final acetone and DMSO concentrations of the application solutions being compared were 8.1% and 0.25%, respectively.
(§17) All stock solutions and applications solutions were visually inspected for compound compatibility prior to application. Spray solutions were applied to the plant material with an overhead Mandel track sprayer equipped with a 8002E nozzles calibrated to deliver 187 L/ha over an application area of 0.503 m^2 at a spray height of 18 to 20 inches (46 to 50 cm) above average plant canopy height. […]

CYPRO = experiment: In-water applied weed control, transplanted paddy rice, greenhouse (Example II); assay type: in vivo, Cyperus rotundus L.
Description: as §1, §2, §3, §4, §5, §6, §7, §8, §9

FIMMI = experiment: as above; assay type: in vivo, Fimbristylis miliacea (L.) Vahl
Description: as §1, §2, §3, §4, §5, §6, §7, §8, §9

SCPMA = experiment: as above; assay type: in vivo; conditions: 37.5 gai/ha
Description: as §1, §2, §3, §4, §5, §6, §7, §8, §9

SCPJU = experiment: as above; assay type: in vivo, Schoenoplectus juncoides (Roxb.) Palla
Description: as §1
as §2, with “Water was added on a regular basis to maintain the paddy flood, and supplemental lighting was provided with overhead metal halide 1000-Watt lamps as necessary. The plants were employed for testing when they reached the first through fourth true leaf stage.” left out
as §5
(§18) For formulated compounds, a measured amount was placed in an individual 100 or 200 mL glass vial and was dissolved in a volume of 1.25% (v/v) Agri-Dex® crop oil concentrate to obtain application solutions. […]

ECHOR = experiment: as above; assay type: in vivo, Echinochloa oryzoides (Ard.) Fritsch
Description: as §1, §2, §3, §4, §5, §6, §7, §8, §9

ECHCG [2] = experiment: as above; assay type: in vivo, Echinochloa crusgalli (L.) Beauv.
Description: as §1, §2, §3, §4, §5, §6, §7, §8, §9

LEFCH [3] = experiment: Post-emergence foliar-applied weed control, greenhouse (Example I); assay type: in vivo, Leptochloa chinensis (L.) Nees; conditions: 150 gai/ha
From the text: as §10
as §11, with “stage. […]” for “stage.”
as §14
For treatments comprised of formulated compounds, measured amounts of compounds were placed individually in 25 mL glass vials and diluted in a volume of 1.25% (v/v) Agri-Dex® crop oil concentrated to obtain 12× stock solutions. […]
For treatments comprised of formulated and technical compounds, weighed amounts of the technical materials were placed individually in 25 mL glass vials and dissolved in a volume of 97:3 v/v acetone/DMSO to obtain 12× stock solutions, and measured amounts of the formulated compounds were placed individually in 25 mL glass vials and diluted in a volume of 1.5% (v/v) crop oil concentrate or water to obtain 12× stock solutions. […]

ECHCO = experiment: In-water applied weed control, transplanted paddy rice, greenhouse (Example II); assay type: in vivo, Echinochloa colona (L.) Link
Description: as §1, §2
Treatments consisted of the acid or esters of 4-amino-3-chloro-5-fluoro-6-(4-chloro-2-fluoro-3-methoxy-phenyl)pyridine-2-carboxylic acid (compound A) each formulated as an SC (suspension concentrate) and various herbicidal components alone and in combination. Forms of compound A were applied on an acid equivalent basis. […]
as §5, §18

ECHCG [4] = experiment: Post-emergence foliar-applied weed control, greenhouse (Example I); assay type: in vivo, Echinochloa crusgalli (L.) Beauv.
From the text: as §10, §11, §12, §13, §14, §15, §16, §17

Question: Which results are given for `Cc1ccc(S(=O)(=O)Oc2c(C(=O)c3ccc(Cl)cc3Cl)c(C)nn2C)cc1` [Pyrazolynate, (2,4-dichlorophenyl)[1,3-dimethyl-5-[[(4-methylphenyl)sulfonyl]oxy]-1H-pyrazol-4-yl]methanone, reference compound]?
Answer: Visual Weed Control (%) - 21 DAA LEFCH Obs (LEFCH [1]; 37.5 gai/ha): 0%; Visual Weed Control (%) - 21 DAA LEFCH Obs (LEFCH [1]; 75 gai/ha): 50%; Visual Weed Control (%) - 21 DAA IPOHE Obs (IPOHE): 10%; Visual Weed Control (%) - 21 DAA CYPRO Obs (CYPRO; 37.5 gai/ha): 0%; Visual Weed Control (%) - 21 DAA CYPRO Obs (CYPRO; 75 gai/ha): 0%; Visual Weed Control (%) - 21 DAA FIMMI Obs (FIMMI; 37.5 gai/ha): 0%; Visual Weed Control (%) - 21 DAA FIMMI Obs (FIMMI; 75 gai/ha): 0%; Visual Weed Control (%) - 21 DAA SCPMA Obs (SCPMA): 0%; Visual Weed Control (%) - 21 DAA SCPJU Obs (SCPJU; 37.5 gai/ha): 0%; Visual Weed Control (%) - 21 DAA SCPJU Obs (SCPJU; 75 gai/ha): 0%; Visual Weed Control (%) - 21 DAA ECHOR Obs (ECHOR; 37.5 gai/ha): 0%; Visual Weed Control (%) - 21 DAA ECHOR Obs (ECHOR; 75 gai/ha): 8%; Visual Weed Control (%) - 21 DAA ECHOR Obs (ECHOR; 150 gai/ha): 13%; Visual Weed Control (%) - 21 DAA ECHCG Obs (ECHCG [2]; 37.5 gai/ha): 0%; Visual Weed Control (%) - 21 DAA ECHCG Obs (ECHCG [2]; 75 gai/ha): 0%; Visual Weed Control (%) - 21 DAA LEFCH Obs (LEFCH [3]): 5%; Visual Weed Control (%) - 21 DAA ECHCO Obs (ECHCO; 37.5 gai/ha): 0%; Visual Weed Control (%) - 21 DAA ECHCO Obs (ECHCO; 75 gai/ha): 0%; Visual Weed Control (%) - 22 DAA ECHCG Obs (ECHCG [4]; 37.5 gai/ha): 0%; Visual Weed Control (%) - 22 DAA ECHCG Obs (ECHCG [4]; 75 gai/ha): 0%; Visual Weed Control (%) - 21 DAA ECHCG Obs (ECHCG [4]; 150 gai/ha): 0%
